In assay [1] the target is Serine/threonine-protein kinase pim-1 (Homo sapiens, UniProt P11309). Description: Selectivity interaction (ProQinase) EUB0000171b PIM1.
Assay [2] has as its target TRAF2 and NCK-interacting protein kinase (Homo sapiens) (UniProt Q9UKE5). In words: Selectivity interaction (KinomeScan (DiscoverX)) EUB0001049a TNIK. Particulars: at 1 µM.
Assay [3] has as its target Mitogen-activated protein kinase 4 (Homo sapiens) (UniProt P31152). Description: Selectivity interaction (KinomeScan (DiscoverX)) EUB0000655a MAPK4. Particulars: at 10 µM.
Assay [4] has as its target Ribosomal protein S6 kinase alpha-3 (Homo sapiens, UniProt P51812). In words: Selectivity interaction (KinomeScan (DiscoverX)) EUB0000655a RPS6KA3. Conditions: at 10 µM.
Assay [5] has as its target T1, Myosin light chain kinase family member 4 (Homo sapiens) (UniProt Q86YV6).
T1 sequence (whole entry): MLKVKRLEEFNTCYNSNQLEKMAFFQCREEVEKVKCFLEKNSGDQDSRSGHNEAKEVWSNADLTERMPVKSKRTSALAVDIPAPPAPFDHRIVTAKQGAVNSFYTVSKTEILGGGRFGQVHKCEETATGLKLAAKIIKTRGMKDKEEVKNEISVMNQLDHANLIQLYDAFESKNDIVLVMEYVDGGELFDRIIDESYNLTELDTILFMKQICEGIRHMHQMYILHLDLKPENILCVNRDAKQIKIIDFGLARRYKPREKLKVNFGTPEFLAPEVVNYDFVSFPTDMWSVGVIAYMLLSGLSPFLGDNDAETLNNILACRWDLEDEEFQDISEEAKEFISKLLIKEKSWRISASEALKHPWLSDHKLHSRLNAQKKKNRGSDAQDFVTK
In words: Selectivity interaction (KinomeScan (DiscoverX)) EUB0000695a MYLK4. Conditions: at 100 nM.

The target in assay [6] is 5-hydroxytryptamine receptor 2B (Homo sapiens, UniProt P41595). In words: Selectivity interaction (Panel of non-epigenetic targets (kinases, GPCRs, ion channels, and transporters, Eurofins) ) EUB0000271b HTR2B. Conditions: at 1 µM.
Sequence of 5-hydroxytryptamine receptor 2B (P41595 whole entry): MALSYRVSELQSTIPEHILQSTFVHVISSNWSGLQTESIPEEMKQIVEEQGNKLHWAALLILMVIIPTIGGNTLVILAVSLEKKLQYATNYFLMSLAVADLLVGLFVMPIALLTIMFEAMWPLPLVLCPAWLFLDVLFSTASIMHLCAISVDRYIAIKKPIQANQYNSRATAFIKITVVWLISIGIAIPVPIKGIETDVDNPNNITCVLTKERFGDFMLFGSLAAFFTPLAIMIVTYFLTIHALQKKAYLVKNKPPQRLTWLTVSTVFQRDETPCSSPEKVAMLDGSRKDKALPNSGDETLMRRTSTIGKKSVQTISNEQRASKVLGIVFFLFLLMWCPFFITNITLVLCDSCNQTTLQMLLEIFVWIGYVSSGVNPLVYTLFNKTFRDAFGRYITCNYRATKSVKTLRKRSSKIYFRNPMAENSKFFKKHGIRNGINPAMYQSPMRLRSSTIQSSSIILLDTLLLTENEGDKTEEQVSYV
For assay [7], the target named is Tyrosine-protein kinase CSK (Homo sapiens) (UniProt P41240). Description: Selectivity interaction (ActivX KiNativ screen (kinase selectivity in THP-1 cell lysates)) EUB0000639a CSK. It is filed as subcellular. Conditions: lysate, at 1 µM.
Sequence of Tyrosine-protein kinase CSK (Homo sapiens) (P41240 2-450 limits assumed): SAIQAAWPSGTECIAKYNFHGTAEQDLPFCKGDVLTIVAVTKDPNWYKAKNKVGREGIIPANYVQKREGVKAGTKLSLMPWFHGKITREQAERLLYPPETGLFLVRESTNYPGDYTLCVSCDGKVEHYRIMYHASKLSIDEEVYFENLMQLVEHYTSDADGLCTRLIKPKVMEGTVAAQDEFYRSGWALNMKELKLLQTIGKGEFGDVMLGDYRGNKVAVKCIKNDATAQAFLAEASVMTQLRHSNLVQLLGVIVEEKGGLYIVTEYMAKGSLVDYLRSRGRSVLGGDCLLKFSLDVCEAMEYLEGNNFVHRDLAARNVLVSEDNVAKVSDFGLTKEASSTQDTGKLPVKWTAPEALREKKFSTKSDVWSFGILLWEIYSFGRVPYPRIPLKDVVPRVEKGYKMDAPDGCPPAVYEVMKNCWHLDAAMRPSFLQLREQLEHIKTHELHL
Assay [8] addresses T2, Cyclin-dependent kinase-like 2 (Homo sapiens) (UniProt Q92772).
T2 sequence (whole entry): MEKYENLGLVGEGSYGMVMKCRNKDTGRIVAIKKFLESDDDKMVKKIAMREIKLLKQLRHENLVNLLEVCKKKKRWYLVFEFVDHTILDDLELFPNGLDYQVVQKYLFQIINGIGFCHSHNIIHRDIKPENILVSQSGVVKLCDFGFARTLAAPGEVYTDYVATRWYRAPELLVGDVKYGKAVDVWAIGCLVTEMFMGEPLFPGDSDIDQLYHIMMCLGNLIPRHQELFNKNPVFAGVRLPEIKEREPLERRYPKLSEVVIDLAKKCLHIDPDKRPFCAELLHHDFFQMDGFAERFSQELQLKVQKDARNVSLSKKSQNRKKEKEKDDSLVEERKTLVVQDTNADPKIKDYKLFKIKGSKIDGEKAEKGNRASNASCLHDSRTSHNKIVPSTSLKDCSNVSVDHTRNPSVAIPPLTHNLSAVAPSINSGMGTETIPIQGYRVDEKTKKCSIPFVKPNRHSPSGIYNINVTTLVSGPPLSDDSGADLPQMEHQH
In words: Selectivity interaction (KinomeScan (DiscoverX)) EUB0000595a CDKL2. Conditions: at 10 µM.

Assay [9] addresses T3, Phosphatidylinositol 3-kinase C2 domain-containing subunit gamma (Homo sapiens) (UniProt O75747).
T3 sequence (whole entry): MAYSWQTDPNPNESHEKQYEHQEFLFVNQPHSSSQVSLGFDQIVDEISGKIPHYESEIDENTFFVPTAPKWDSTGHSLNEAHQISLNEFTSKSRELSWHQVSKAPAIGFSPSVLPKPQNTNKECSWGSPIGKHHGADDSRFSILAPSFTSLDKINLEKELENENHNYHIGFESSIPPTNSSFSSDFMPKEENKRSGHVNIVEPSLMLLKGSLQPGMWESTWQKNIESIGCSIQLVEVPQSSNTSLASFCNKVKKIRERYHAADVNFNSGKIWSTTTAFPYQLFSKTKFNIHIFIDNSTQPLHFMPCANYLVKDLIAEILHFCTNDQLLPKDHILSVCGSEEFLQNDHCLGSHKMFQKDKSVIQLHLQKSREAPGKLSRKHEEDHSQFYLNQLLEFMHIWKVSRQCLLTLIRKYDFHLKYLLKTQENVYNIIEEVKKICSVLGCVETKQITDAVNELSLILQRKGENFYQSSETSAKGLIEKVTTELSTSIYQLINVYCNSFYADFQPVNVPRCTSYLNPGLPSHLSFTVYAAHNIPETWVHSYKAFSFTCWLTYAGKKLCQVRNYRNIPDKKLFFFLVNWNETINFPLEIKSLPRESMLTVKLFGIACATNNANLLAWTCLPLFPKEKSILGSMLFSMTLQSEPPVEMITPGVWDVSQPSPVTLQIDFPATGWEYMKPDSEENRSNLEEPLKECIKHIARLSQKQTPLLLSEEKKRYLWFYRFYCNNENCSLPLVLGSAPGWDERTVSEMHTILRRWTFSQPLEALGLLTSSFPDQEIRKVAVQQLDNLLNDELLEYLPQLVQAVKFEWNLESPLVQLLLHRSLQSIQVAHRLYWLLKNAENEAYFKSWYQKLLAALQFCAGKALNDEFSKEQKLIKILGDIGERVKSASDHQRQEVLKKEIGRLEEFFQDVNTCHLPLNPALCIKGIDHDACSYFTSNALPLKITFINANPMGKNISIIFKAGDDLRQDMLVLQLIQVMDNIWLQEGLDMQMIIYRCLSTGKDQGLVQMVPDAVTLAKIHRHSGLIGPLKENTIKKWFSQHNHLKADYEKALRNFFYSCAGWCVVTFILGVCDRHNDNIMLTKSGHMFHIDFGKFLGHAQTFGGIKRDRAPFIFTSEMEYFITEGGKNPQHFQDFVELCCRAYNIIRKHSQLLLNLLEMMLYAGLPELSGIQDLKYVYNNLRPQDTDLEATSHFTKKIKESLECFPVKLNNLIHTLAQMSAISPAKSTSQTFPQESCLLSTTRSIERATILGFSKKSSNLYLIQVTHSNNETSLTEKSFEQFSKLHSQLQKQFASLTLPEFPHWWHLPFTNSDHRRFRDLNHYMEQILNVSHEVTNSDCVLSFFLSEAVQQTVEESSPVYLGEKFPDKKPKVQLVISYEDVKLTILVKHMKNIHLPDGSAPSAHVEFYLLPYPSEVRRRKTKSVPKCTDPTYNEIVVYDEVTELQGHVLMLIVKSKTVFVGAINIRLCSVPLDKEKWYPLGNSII
Description: Selectivity interaction (KinomeScan (DiscoverX)) EUB0001619a PIK3C2G. Particulars: at 1 µM.

SMILES strings stand for the structures.

Sequence of Serine/threonine-protein kinase pim-1 (P11309 whole entry, looked up): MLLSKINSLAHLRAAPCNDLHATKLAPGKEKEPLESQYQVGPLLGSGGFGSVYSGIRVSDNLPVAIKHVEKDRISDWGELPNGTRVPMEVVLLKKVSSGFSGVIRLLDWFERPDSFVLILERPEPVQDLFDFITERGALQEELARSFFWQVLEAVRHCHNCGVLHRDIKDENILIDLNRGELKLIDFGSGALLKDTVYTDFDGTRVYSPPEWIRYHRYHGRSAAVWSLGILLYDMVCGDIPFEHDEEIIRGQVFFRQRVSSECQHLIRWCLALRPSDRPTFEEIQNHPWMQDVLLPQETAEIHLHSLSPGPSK
Sequence of Ribosomal protein S6 kinase alpha-3 (P51812 whole entry): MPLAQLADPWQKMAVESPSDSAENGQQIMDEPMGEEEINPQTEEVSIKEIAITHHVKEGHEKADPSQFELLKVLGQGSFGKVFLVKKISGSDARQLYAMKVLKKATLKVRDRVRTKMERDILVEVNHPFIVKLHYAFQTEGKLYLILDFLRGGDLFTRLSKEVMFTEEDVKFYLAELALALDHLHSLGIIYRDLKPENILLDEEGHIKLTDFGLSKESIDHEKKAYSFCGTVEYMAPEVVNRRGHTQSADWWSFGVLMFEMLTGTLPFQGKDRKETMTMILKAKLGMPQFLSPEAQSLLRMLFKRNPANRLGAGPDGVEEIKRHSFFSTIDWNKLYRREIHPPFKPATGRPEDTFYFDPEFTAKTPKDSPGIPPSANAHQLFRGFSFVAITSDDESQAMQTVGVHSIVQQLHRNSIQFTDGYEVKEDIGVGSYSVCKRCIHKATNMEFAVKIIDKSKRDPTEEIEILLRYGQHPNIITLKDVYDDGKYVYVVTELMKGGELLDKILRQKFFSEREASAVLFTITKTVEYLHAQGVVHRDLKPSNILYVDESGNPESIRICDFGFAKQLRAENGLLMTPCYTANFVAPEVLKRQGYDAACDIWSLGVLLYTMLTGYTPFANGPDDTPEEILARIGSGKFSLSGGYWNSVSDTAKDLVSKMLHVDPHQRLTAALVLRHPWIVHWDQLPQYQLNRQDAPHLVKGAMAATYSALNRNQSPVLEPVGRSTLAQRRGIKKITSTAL
Sequence of Mitogen-activated protein kinase 4 (Homo sapiens) (P31152 whole entry): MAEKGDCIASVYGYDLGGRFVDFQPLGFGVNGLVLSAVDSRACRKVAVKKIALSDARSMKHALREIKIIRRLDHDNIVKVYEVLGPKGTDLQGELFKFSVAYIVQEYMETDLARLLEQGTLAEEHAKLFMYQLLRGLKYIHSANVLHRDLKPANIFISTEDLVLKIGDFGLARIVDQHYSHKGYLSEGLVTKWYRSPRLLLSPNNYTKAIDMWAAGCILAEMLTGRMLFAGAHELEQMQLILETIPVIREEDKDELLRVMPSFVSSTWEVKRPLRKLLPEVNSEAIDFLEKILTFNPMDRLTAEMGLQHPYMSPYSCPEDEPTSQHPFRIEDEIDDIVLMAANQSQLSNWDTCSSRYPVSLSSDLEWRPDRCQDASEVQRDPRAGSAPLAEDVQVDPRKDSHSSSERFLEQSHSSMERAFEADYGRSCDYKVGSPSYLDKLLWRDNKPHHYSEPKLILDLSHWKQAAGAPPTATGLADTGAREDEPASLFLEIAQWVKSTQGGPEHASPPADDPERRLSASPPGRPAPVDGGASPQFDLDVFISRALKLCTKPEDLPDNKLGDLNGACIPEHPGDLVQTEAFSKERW
Sequence of TRAF2 and NCK-interacting protein kinase (Homo sapiens) (Q9UKE5 whole entry, looked up): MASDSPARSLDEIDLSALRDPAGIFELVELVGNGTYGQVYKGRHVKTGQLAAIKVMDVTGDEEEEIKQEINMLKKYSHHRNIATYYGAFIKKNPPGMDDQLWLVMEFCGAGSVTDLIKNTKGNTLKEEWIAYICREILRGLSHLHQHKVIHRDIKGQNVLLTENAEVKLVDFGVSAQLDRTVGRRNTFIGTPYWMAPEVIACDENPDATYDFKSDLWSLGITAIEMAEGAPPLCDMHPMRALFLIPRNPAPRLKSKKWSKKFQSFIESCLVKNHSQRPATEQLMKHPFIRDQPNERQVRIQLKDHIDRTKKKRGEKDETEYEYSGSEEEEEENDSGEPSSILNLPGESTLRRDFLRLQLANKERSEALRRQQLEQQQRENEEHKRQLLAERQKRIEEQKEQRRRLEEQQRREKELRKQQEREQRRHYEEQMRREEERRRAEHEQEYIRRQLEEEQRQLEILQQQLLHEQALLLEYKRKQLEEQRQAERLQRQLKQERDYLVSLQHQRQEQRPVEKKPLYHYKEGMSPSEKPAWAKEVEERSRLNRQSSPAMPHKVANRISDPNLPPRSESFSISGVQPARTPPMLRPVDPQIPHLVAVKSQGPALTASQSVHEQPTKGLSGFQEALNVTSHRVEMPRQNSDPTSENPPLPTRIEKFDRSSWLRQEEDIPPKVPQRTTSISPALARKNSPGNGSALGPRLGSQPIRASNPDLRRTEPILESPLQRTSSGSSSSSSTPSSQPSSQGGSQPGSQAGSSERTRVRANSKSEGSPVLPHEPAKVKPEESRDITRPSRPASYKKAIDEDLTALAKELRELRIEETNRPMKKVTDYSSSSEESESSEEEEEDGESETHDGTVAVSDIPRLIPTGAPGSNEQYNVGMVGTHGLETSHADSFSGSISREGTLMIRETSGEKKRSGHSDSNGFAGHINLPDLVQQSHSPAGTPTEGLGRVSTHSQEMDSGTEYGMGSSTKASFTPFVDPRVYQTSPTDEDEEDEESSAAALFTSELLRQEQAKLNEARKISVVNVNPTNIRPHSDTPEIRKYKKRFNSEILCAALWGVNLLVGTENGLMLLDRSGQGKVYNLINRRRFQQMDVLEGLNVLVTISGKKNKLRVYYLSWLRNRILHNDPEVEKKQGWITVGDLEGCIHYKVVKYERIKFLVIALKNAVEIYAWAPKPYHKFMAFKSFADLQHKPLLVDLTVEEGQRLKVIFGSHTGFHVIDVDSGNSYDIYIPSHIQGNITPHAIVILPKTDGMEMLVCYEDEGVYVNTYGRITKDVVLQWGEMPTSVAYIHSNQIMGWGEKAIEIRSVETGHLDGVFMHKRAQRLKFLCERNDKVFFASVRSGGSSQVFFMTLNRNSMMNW

As to `C=CC(=O)Nc1cccc(C(=O)Nc2ccc(Nc3cc(-c4[nH]c(SC)nc4C)ccn3)cc2)c1`, the figures for the % of control in [1] (at 1 µM) and in [1] (at 5 µM) were 87% and 67%, respectively.

In turn, `COc1cc(Nc2nc(C)cc(-c3cnn4nc(OC)ccc34)n2)cc(C(F)(F)F)c1` displayed a % of control in [2] of 74%.

As to `CN(C)CCOc1ccc(-c2nc(-c3ccncc3)c(-c3ccc4c(c3)CC/C4=N\O)[nH]2)cc1`, the % of control in assay [3] came out at 100%; in assay [4], 67%.

Consider `Cc1cc(F)c(C(=O)Nc2cccc(-c3nncn3C(C)C)n2)cc1-n1cnc(C2CC2)c1`, for which the % of control in assay [5] came out at 100%.

In turn, `Cc1cc(C)cc([C@@H]2c3cc(C)ccc3NC(=O)CN2C(=O)c2ccc(Br)s2)c1` had a % of inhibition in assay [6] of 1%.

As to `CC[C@@H]1[C@H](F)C(=O)N[C@@H]1COc1nccc2cc(C(N)=O)c(OC)cc12` [ZIMLOVISERTIB], in assay [7], the % of inhibition is 0.5%.

Take `COCC(=O)NC/C=C/c1ccc2ncnc(Nc3ccc(Oc4ccc(C)nc4)c(C)c3)c2c1` [CP-724714]: the % of control in assay [8] was found to be 91%.

In turn, `N#Cc1cccc(-c2c[nH]c3ncnc(N4CCOCC4)c23)c1` displayed a % of control in [9] of 100%.

Values taken from ChEMBL document CHEMBL5465560, “Selectivity Literature for EUbOPEN Chemogenomic Library” (2024).
